Values quoted from earlier work as cited in patent US20240350489A1, “LOU064 FOR TREATING MULTIPLE SCLEROSIS” (NOVARTIS AG, priority 2021, published 2024).
“Also recorded” adds a separate entry of the source. Where two headings read alike, the source gives them in different places.

Key:
[1] = cited from earlier work
[2] = cited from earlier work; remark: listed apart in the source
[3] = tested on: experimental autoimmune encephalomyelitis (EAE); details: cited from earlier work

## C=CC(=O)N1CCC[C@@H](n2c(=O)n(-c3ccc(Oc4ccccc4)cc3)c3c(N)nccc32)C1 [tolebrutinib]
[1]; human, in vivo
  dose-limiting side effects: dose-limiting diarrhea
[1]; mid-stage trials
  MS lesion development: reduction in MS lesion development
  most frequent adverse events: headaches and cold-like symptoms

## C=CC(=O)N1CCC(CNc2ncnc(N)c2-c2ccc(Oc3ccccc3)cc2)CC1 [evobrutinib]
[2]; 75 mg once daily and twice daily
  elevations of ALT, AST and lipase: dose-limiting liver enzyme elevations; also recorded: higher frequency of elevations
[2]; 75 mg once or twice per day vs placebo or dimethyl fumarate
  brain lesions and relapses: trend toward developing fewer brain lesions and experiencing fewer relapses
[3]; 3 mg/kg
  efficacy in EAE: effective
[3]; 10 mg/kg vs 3 mg/kg
  efficacy in EAE: did not further improve the effect
